Values quoted from earlier work, collected in US20050208119A1, “Encapsulated oral chelating preparations” (priority 2004, published 2005).

Settings: oral administration

fraction absorbed when administered by mouth (general consensus): about five
unabsorbed fraction that remains within the digestive tract (reported): 95%
Structure (SMILES): O=C(O)CN(CCN(CC(=O)O)CC(=O)O)CC(=O)O [EDTA, ethylene-diaminetetraacetic acid]
